For assay [1], the system named is S-trimer-ACE2 binding, 293T-ACE2hR cells. Type of assay: cell-based, SARS-CoV-2 (S-trimer); human (hACE2). The conditions noted are these: for blocking of S-trimer binding onto 293T-ACE2hR cells, lower concentrations: 10 μM peptide and below, S-trimer 0.001 μM; for blocking of S-trimer binding onto 293T-ACE2hR cells, lower concentrations / blocking of S-trimer binding onto 293T-ACE2hR cells: premix 1 h, then 1 h on cells, room temperature, HRP anti-6X His tag, TMB, OD370 nm; for blocking of S-trimer binding onto 293T-ACE2hR cells: 50 μM peptide vs. 0.001 μM S-trimer (50,000-fold), p < 0.05 mark vs. vehicle, Student's t-test; for behaviour of C2 and C6 in the competition assay: Figure 3.

Assay [2] concerns recombinant SARS-CoV-2 S-RBD. Kind of assay: Phage display (PhD-12) panning against S-RBD. Type of assay: binding. The note with it: phage-displayed sequence, after panning against S-RBD.
Assay [3] deals with S-trimer-ACE2 binding, recombinant ACE2 proteins. Kind of assay: Blocking of S-trimer binding onto recombinant ACE2 (ELISA). Also noted: species or system SARS-CoV-2 (S-trimer). The note with it: ACE2 coated 5 μg/ml, S-trimer 0.01 μM premixed with 0.5, 1.65 and 5 μM peptide (up to 500:1). On the procedure:
Then, 293T-ACE2hR cells were substituted by recombinant ACE2 proteins and coated onto ELISA plates in the other measurement setting. In brief, recombinant ACE2 proteins (Novoprotein) were immobilized overnight at room temperature on ELISA plates at a 5 μg/ml concentration in 0.1 M NaHCO3, pH 9.6. The plates were then blocked with 10% fetal calf serum for 2 h and washed with tris-buffered saline solution containing 0.1% Tween-20 [[…] (PBST) buffer]. […] The following procedures were described above for the 293T-ACE2hR cells setting.
FIGURE 3 The potential blocking effect of peptides on the binding of S-trimer onto cellular or soluble angiotensin-converting enzyme 2 (ACE2). […] The peptide SBP1 was used as a positive and peptide SBP2 as the negative control. *p < 0.05, vs. vehicle, all by Student’s t-test.

Assay [4] relates to recombinant SARS-CoV-2 S-trimer proteins. Kind of assay: Phage display (PhD-12) panning against S-trimer. Type of assay: binding. The conditions noted are these: phage-displayed sequence, after panning against S-trimer.
The test system of assay [5] is cell surface S-RBD proteins. Further details: method as in Zhang et al., 2020. The note with it: ref Zhang et al., 2020; cited from earlier work.
In assay [6] the test system is ACE2 binding onto S-RBD proteins. Also noted: method as in Zhang et al., 2020. The note with it: ref Zhang et al., 2020; cited from earlier work.
A further assay relates to S-RBD proteins. Also noted: method as in Zhang et al., 2020. The conditions noted are these: bio-layer interferometry; ref Zhang et al., 2020; cited from earlier work. (In BLI a coated tip is dipped into the sample, and binding shifts an interference pattern.)

Entries after “also recorded” stand apart in the source; their conditions may differ.

With DHAQRYGAGHSG [C2], in assay [1], the “blocking of S-trimer binding onto 293T-ACE2hR cells, lower concentrations” value was “not at lower concentrations (10 μM and below)”; the “blocking of S-trimer binding onto 293T-ACE2hR cells” value is “inhibited S-trimer binding onto 293T-ACE2hR cells at high concentrations (50 μM); also recorded: a blocking effect was observed for C2 and C6”; the “behaviour of C2 and C6 in the competition assay” value was “C2 and C6 behaved similarly in the competition assay”. Further, in assay [2], the “enrichment by S-RBD” value is “enriched by S-RBD”. In addition, the “blocking of S-trimer binding onto recombinant ACE2” value in assay [3] is on record as “neither for the settings of S-trimer binding onto recombinant ACE2 proteins; also recorded: Failure of 500-fold overdose of C2 or C6 peptides to block S-trimers binding with their receptors”. Also, in assay [4], the “enrichment by S-trimer” value is “only C2 was present in S-trimer selected phages”.

Consider TFLDKFNHEAED [SBP2, reference compound], for which the “blocking of S-trimer binding onto 293T-ACE2hR cells” value in assay [1] is “still not for SBP1 or SBP2 peptides”.

As to IEEQAKTFLDKFNHEAEDLFYQSK [SBP1], the “association with cell surface S-RBD proteins” value in assay [5] was “neither associated with cell surface S-RBD proteins”. In addition, the “blocking of S-trimer binding onto 293T-ACE2hR cells” value in assay [1] was “still not for SBP1 or SBP2 peptides”. The “competition with ACE2 binding onto S-RBD” value in assay [6] is on record as “nor did they outcompete ACE2 binding onto S-RBD proteins”. Besides, the “association with S-RBD proteins” value in the assay on S-RBD proteins was “at the level of micromolar scales”.

Turning to HWKAVNWLKPWT [C6], in assay [1], the “blocking of S-trimer binding onto 293T-ACE2hR cells, lower concentrations” value is “not at lower concentrations (10 μM and below)”; the “blocking of S-trimer binding onto 293T-ACE2hR cells” value is “inhibited S-trimer binding onto 293T-ACE2hR cells at high concentrations (50 μM); also recorded: a blocking effect was observed for C2 and C6”; the “behaviour of C2 and C6 in the competition assay” value was “C2 and C6 behaved similarly in the competition assay”. Also, the “enrichment by S-RBD” value in assay [2] was “enriched by S-RBD”. Further, the “blocking of S-trimer binding onto recombinant ACE2” value in assay [3] is given as “neither for the settings of S-trimer binding onto recombinant ACE2 proteins; also recorded: Failure of 500-fold overdose of C2 or C6 peptides to block S-trimers binding with their receptors”.

The record behind these values is paper PMC9513850, “Receptor-binding domain-anchored peptides block binding of severe acute respiratory syndrome coronavirus 2 spike proteins with cell surface angiotensin-converting enzyme 2” (Frontiers in Microbiology, 2022).
